Assay results: publication PMC8245078, “Development of novel benzofuran-isatin conjugates as potential antiproliferative agents with apoptosis inducing mechanism in Colon cancer” (Journal of Enzyme Inhibition and Medicinal Chemistry, 2021)

Tests used:
MOLT-4 = type: cell-based; details: MOLT-4, five-dose test
HCC-2998 = type: cell-based; details: HCC-2998, five-dose test
SF-539 = type: cell-based, human; details: SF-539, five-dose test
HS 578 T = type: cell-based; details: five-dose test

COc1ccc2c(c1)/C(=N/NC(=O)c1oc3ccccc3c1C)C(=O)N2 [Compound 5d]
LC50 (MOLT-4; Homo sapiens): > 100 µM
TGI (MOLT-4): >100 µM
TGI (HCC-2998): >100 µM
CC50 (HCC-2998; Homo sapiens, read-out: LC50 (the source's name)): > 100 µM
GI50 (SF-539; Homo sapiens): 1.66 µM
TGI (SF-539): 3.16 µM
GI50 (HS 578 T; Homo sapiens): 2.41 µM
LC50 (HS 578 T; Homo sapiens): > 100 µM
TGI (HS 578 T): 7.72 µM
